In ChEMBL document CHEMBL1201862, “PubChem BioAssay data set” (2004):
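Dose response: 5 concentrations. Exposure: 48 h. Format: 96-well plates. Endpoint: linear interpolation; highest concentration if not reached. Abbreviation: GI50, concentration required for 50% inhibition of growth.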 Active and inactive are the calls of the source. No stated cut-off is given here; in the data, active = GI50 up to about 1.1 µM and inactive = higher.

Columns and labels:
Experiment in all cases: NCI-60 cell line screen, 48 h
SNB-19 = system: SNB-19
MOLT-4 = system: MOLT-4
T47D = system: T47D
786-0 = system: 786-0
ACHN = system: ACHN
MDA-MB-435 = system: MDA-MB-435
NCI/ADR-RES = system: NCI/ADR-RES
SK-MEL-5 = system: SK-MEL-5
NCI-H460 = system: NCI-H460
SW-620 = system: SW-620
HT-29 = system: HT-29
SNB-75 = system: SNB-75
SF-268 = system: SF-268
HL-60 = system: HL-60
SF-295 = system: SF-295
HOP-92 = system: HOP-92
CCRF-CEM = system: CCRF-CEM
MDA-N = system: MDA-N
Malme-3M = system: Malme-3M
RPMI-8226 = system: RPMI-8226

Row | SMILES | GI50 (SNB-19) | GI50 (MOLT-4) | GI50 (T47D) | GI50 (786-0) | GI50 (ACHN) | GI50 (MDA-MB-435) | GI50 (NCI/ADR-RES) | GI50 (SK-MEL-5) | GI50 (NCI-H460) | GI50 (SW-620) | GI50 (HT-29) | GI50 (SNB-75) | GI50 (SF-268) | GI50 (HL-60) | GI50 (SF-295) | GI50 (HOP-92) | GI50 (CCRF-CEM) | GI50 (MDA-N) | GI50 (Malme-3M) | GI50 (RPMI-8226)
1 | N#Cc1ccc(N2CCOCC2)cc1 | > 100 µM (inactive) | > 100 µM (inactive) | > 100 µM (inactive) | > 100 µM (inactive) | > 100 µM (inactive) | > 100 µM (inactive) | > 100 µM (inactive) | > 100 µM (inactive) | > 100 µM (inactive) | > 100 µM (inactive) | > 100 µM (inactive) | > 100 µM (inactive) | > 100 µM (inactive) | > 100 µM (inactive) | > 100 µM (inactive) | > 100 µM (inactive) | 0.975 µM (active) | > 100 µM (inactive) | – | –
2 | CC(C)CCCCCCCCCCCCC(=O)NCC(=O)NC1C(O)C(O)C(Nc2[nH]cnc3ncnc2-3)OC1C(O)CO (stereo not given) | 0.000564 µM (active) | 0.0121 µM (active) | 0.32 µM (active) | 0.225 µM (active) | 0.225 µM (active) | 0.224 µM (active) | 0.00403 µM (active) | 0.00114 µM (active) | 0.000541 µM (active) | – | 0.000555 µM (active) | 0.000441 µM (active) | 0.00359 µM (active) | 0.00057 µM (active) | 0.000604 µM (active) | 0.00049 µM (active) | 0.0568 µM (active) | 0.229 µM (active) | 0.000679 µM (active) | 0.000525 µM (active)
3 | Cc1cc(=O)oc2cc(SC(=O)N(C)C)ccc12 | > 100 µM (inactive) | > 100 µM (inactive) | > 100 µM (inactive) | > 100 µM (inactive) | > 100 µM (inactive) | > 100 µM (inactive) | > 100 µM (inactive) | > 100 µM (inactive) | > 100 µM (inactive) | > 100 µM (inactive) | > 100 µM (inactive) | > 100 µM (inactive) | > 100 µM (inactive) | > 100 µM (inactive) | > 100 µM (inactive) | > 100 µM (inactive) | – | > 100 µM (inactive) | > 100 µM (inactive) | > 100 µM (inactive)
4 | Cc1c(C(=O)N2CCN(c3ccc([N+](=O)[O-])cc3)CC2)[n+]([O-])c2cc(Cl)c(Cl)cc2[n+]1[O-] | 18.3 µM (inactive) | 72.8 µM (inactive) | 17.1 µM (inactive) | 16.5 µM (inactive) | 13.5 µM (inactive) | 35.7 µM (inactive) | 16.8 µM (inactive) | 10.9 µM (inactive) | 19.5 µM (inactive) | 21.6 µM (inactive) | 25.2 µM (inactive) | – | 17.3 µM (inactive) | 28.4 µM (inactive) | 19.1 µM (inactive) | 15.2 µM (inactive) | > 100 µM (inactive) | 26.7 µM (inactive) | 21.8 µM (inactive) | 15.6 µM (inactive)
